In article PMC6332318, “Synthetic Development of New 3-(4-Arylmethylamino)butyl-5-arylidene-rhodanines under Microwave Irradiation and Their Effects on Tumor Cell Lines and against Protein Kinases” (Molecules, 2015):

How the values were obtained:
[1] = tested on: Caco 2 cells (differentiating colorectal adenocarcinoma); experiment: in vitro inhibition of cell proliferation / survival assay; format: cell-based; conditions: Homo sapiens; for IC50: 48 h, average of three assays, standard error ± 0.5 μM; for viability at 25 µM: measured at 25 μM after 48 h, single dose, triplicate
Experimental: (§1) As an initial effort to investigate their in vitro bioactivity, the new synthesized 3-(4-arylmethylamino)butyl-2-thioxo-1,3-thiazolidine-4-one 9a–n and also their precursors 6a–f were evaluated for their in vitro inhibition of cell proliferation. For this study, we used a panel of seven representative tumoral cell lines, namely HuH7 D12 (differential hepato cellular carcinoma), Caco 2 (differentiating colorectal adenocarcinoma), MDA-MBD231 ([…]), HCT 116 (actively proliferating colorectal adenocarcinoma), PC3 (prostate carcinoma), NCI-H727 (lung carcinoma), HaCat keratinocyte and, diploid skin fibroblasts as normal cell lines for control.
(§2) Skin diploid fibroblastic cells were provided by BIOPREDIC International Company (Rennes, France). Caco2 (Ref ECACC: 86010202), Huh-7D12 (Ref ECACC: 01042712), MDA-MB-231 (Ref ECACC: 92020424), HCT-116 (Ref ECACC: 91091005), PC3 (Ref ECACC: 90112714), NCI-H727 (Ref ECACC: 94060303) cell lines were obtained from the ECACC collection and HaCaT (from Cell Lines Service, Eppelheim, Germany). Cells were grown according to ECACC recommendations. The toxicity test of the compounds on these cells was as follows: 2 × 10^3 cells for HCT-116 cells or 4 × 10^3 for the other cells were seeded in 96 multiwell plates in triplicate and left for 24 h for attachment, spreading and growing. Then, cells were exposed for 48 h to increasing concentrations of the compounds, ranging from 0.1 to 25 μM in a final volume of 120 μL of culture medium. Cells were fixed in cooled solution of 90% ethanol/5% acetic acid, nuclei were stained with Hoechst 3342 (Sigma) and counted using automated imaging analysis (Cellomics Arrayscan VTI/HCS Reader, Thermo/Scientific, Waltham, MA, USA). The IC50 were graphically determined.

[2] = tested on: HCT 116 cells (actively proliferating colorectal adenocarcinoma); experiment: as above; format: cell-based; conditions: Homo sapiens; for IC50: 48 h, average of three assays, standard error ± 0.5 μM; for viability at 25 µM: measured at 25 μM after 48 h, single dose, triplicate
Experimental: as §1, §2

[3] = tested on: HaCat keratinocyte; experiment: as above; format: cell-based; conditions: for IC50: 48 h, average of three assays, standard error ± 0.5 μM; for viability at 25 µM: measured at 25 μM after 48 h, single dose, triplicate
Experimental: as §1, §2

[4] = tested on: Huh7 D12 cells (differential hepato cellular carcinoma); experiment: as above; format: cell-based; conditions: for IC50: Huh-7D12, 48 h, average of three assays, standard error ± 0.5 μM; for viability at 25 µM: Huh-7D12, measured at 25 μM after 48 h, single dose, triplicate
Experimental: as §1, §2

[5] = tested on: MDA-MB231 cells; experiment: as above; format: cell-based; conditions: Homo sapiens; for IC50: MDA-MB-231, 48 h, average of three assays, standard error ± 0.5 μM; for viability at 25 µM: MDA-MB-231, measured at 25 μM after 48 h, single dose, triplicate
Experimental: as §1, §2

[6] = tested on: NCI-H727 cells (lung carcinoma); experiment: as above; format: cell-based; conditions: Homo sapiens, NCI-H727; for IC50: 48 h, average of three assays, standard error ± 0.5 μM; for viability at 25 µM: measured at 25 μM after 48 h, single dose, triplicate, read-out: % of Survival
Experimental: as §1, §2

[7] = tested on: PC3 cells (prostate carcinoma); experiment: as above; format: cell-based; conditions: Homo sapiens; for IC50: PC-3, 48 h, average of three assays, standard error ± 0.5 μM; for viability at 25 µM: PC-3, measured at 25 μM after 48 h, single dose, triplicate
Experimental: as §1, §2

[8] = target: T1, HsHaspin (Homo sapiens, UniProt Q8TF76); experiment: protein kinase assay, [γ-33P] ATP; format: biochemical
T1 construct: HsHaspin-kd aa 470 to 798; GST (from vector pGEX-6P-3; tag and N-terminal position are own knowledge of the vector) (N); made in house; host or cells: Escherichia coli BL21-KRX
T1 sequence (Q8TF76 470-798): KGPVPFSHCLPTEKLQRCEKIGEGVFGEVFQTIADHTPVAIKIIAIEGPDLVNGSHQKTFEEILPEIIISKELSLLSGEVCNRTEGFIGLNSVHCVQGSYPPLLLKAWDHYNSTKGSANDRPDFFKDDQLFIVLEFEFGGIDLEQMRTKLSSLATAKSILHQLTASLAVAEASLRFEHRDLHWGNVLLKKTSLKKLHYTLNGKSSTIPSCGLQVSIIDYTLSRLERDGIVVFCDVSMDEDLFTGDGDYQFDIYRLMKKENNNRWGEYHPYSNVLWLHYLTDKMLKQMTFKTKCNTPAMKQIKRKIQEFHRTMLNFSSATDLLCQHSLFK
Experimental: Then, we evaluated the intermediates salts 6a–f and fourteen final compounds 9a–n on four protein kinases: HsCDK5-p25 (cyclin-dependant kinase 5-p25), SsGSK-3α/β (glycogen synthase kinase-3α/β) SsCK1δ/ε (Caseine kinase 1) and HsHaspin as an essential mitotic kinase. […] IC50 values were determined from dose-response curves.
ATP (3000 Ci/mmol; 10 mCi/mL) in a final volume of 30 µL. After 30 min incubation at 30 °C, the reaction was stopped by harvesting, using a FilterMate harvester (Packard, Meriden, CT, USA), onto P81 phosphocellulose papers (GE Healthcare, Velizy-Villacoublay, France) which were washed in 1% phosphoric acid. Scintillation fluid was added and the radioactivity measured in a Packard counter. Blank values were subtracted and activities calculated as pmoles of phosphate incorporated during the 30 min incubation. The activities were expressed in a percentage of the maximal activity, i.e., in the absence of inhibitors. Controls were performed with appropriate dilutions of DMSO. CK1 and Haspin peptide substrates were obtained from Proteogenix (Oberhausbergen, France).
Haspin kinase domain (HsHaspin-kd aa 470 to 798) encoding cDNA, obtain by RT-PCR, was cloned into pGex-6P-3. The fusion protein was expressed in Escherichia coli strain BL21-KRX (Promega, Madison, WI, USA) and purified by affinity chromatography on glutathione-agarose beads (Sigma). Haspin-kd activity was assayed with 3 µM Histone H3 (1-21) peptide, a specific Haspin substrate, ([…]), in Buffer H (MOPS 25 mM pH 7.5; 10 mM MgCl2).

| SMILES | IC50 [1] [µM] | viability at 25 µM [1] [%] | IC50 [2] [µM] | viability at 25 µM [2] [%] | IC50 [3] [µM] | IC50 ([3]; Homo sapiens, HaCaT) [µM] | viability at 25 µM ([3]; Homo sapiens) [%] | IC50 [4] [µM] | viability at 25 µM [4] [%] | IC50 [5] [µM] | viability at 25 µM [5] [%] | IC50 [6] [µM] | viability at 25 µM [6] [%] | IC50 [7] [µM] | viability at 25 µM [7] [%] | IC50 [8] [µM] | melting point [°C] |
| --- | --- | --- | --- | --- | --- | --- | --- | --- | --- | --- | --- | --- | --- | --- | --- | --- | --- |
| O=C1/C(=C/c2ccc3c(c2)OCCO3)SC(=S)N1CCCCNCc1ccc2c(c1)OCO2 [Compound 9i, (5Z)3-[4-(1,3-Benzodioxol-5-ylmethylamino)butyl]-5-(2,3-dihydro-1,4-benzodioxin-6-ylmethylene)-2-thioxo-1,3-thiazolidin-4-one] | 13 | 17 | 14 | 8 | 8 | < 10 | 6 | 9 | 5 | 9 | 17 | 11 | 9 | 14 | 39 | > 10 | 253 to 257 |
| O=C1/C(=C/c2ccc3c(c2)OCO3)SC(=S)N1CCCCNCc1ccc2c(c1)OCO2 [Compound 9h, (5Z)3-[4-(1,3-Benzodioxol-5-ylmethylamino)butyl]-5-(1,3-benzodioxol-5-ylmethylene)-2-thioxo-1,3-thiazolidin-4-one] | 14 | 42 | 13 | 65 |  | 10 | 10 | 10 | 7 | 10 | 49 | > 25 | 43 | 13 | 51 | > 10 | 245 to 256 |
| COc1cc(/C=C2\SC(=S)N(CCCCNCc3ccc4c(c3)OCCO4)C2=O)ccc1O [Compound 9n, (5Z)3-[4-(2,3-Dihydro-benzo[1,4]dioxin-6-ylmethylamino)butyl]-5-(4-hydroxy-3-methoxybenzylidene)-2-thioxo-1,3-thiazolidin-4-one] | 16 | 28 | 21 | 52 |  | 15 | 48 | 15 | 41 | 15 | 55 | 17 | 63 | 19 | 61 | > 10 | 202 to 204 |
| O=C1/C(=C/c2ccc(O)cc2)SC(=S)N1CCCCNCc1ccc2c(c1)OCO2 [Compound 9j, (5Z)3-[4-(1,3-Benzodioxol-5-ylmethylamino)butyl]-5-(4-hydroxy-benzylidene)-2-thioxo-1,3-thiazolidin-4-one] | 27 | 41 | 22 | 40 |  | 13 | 21 | 11 | 22 | 19 | 42 | 19 | 33 | 19 | 38 | > 10 |  |
